{"source": "patent US10273226B2", "about": "“Pyrazolyl-heteroarylamides as pesticides” (Bayer Animal Health GmbH, priority 2014, dated 2019)", "data": [{"system": "Ctenocephalides felis", "assay": "Ctenocephalides felis in vitro contact test with adult cat fleas", "assay_type": "in vivo", "details": "application rate 5 μg/cm^2 (500 g/ha); after 48 h; fleas dead or moribund", "outline": "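Test tubes were coated with 250 μl acetone solution of compound, giving 5 μg/cm^2 at 900 ppm, then dried and stocked with 5-10 adult cat fleas. After 48 h at room temperature and ambient humidity, dead or moribund fleas were counted; efficacy given as % (100% = all dead or moribund).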", "units": {"efficacy": "%"}, "values": [{"smiles": "Cn1nc(C(F)(F)C(F)(F)F)c(C(F)(F)F)c1-n1cc(-c2cccc(NC(=O)c3ccc(F)cc3)c2)cn1", "note": "[Example 1-003]", "efficacy": 100}, {"smiles": "CCC(=O)Nc1cc(-c2cnn(-c3c(C(F)(F)F)c(C(F)(F)C(F)(F)F)nn3C)c2)ccc1F", "note": "[Example 1-076]", "efficacy": 100}, {"smiles": "CC(C)C(=O)Nc1cc(-c2cnn(-c3c(C(F)(F)F)c(C(F)(F)C(F)(F)F)nn3C)c2)ccc1F", "note": "[Example 1-064]", "efficacy": 100}, {"smiles": "Cc1oncc1C(=O)Nc1cc(-c2cnn(-c3c(C(F)(F)F)c(C(F)(F)C(F)(F)F)nn3C)c2)ccc1F", "note": "[Example 1-081]", "efficacy": 100}]}, {"system": "Rhipicephalus sanguineus", "assay": "Rhipicephalus sanguineus in vitro contact test with adult brown dog ticks", "assay_type": "in vivo", "details": "application rate 5 μg/cm^2 (500 g/ha); after 48 h; ticks dead or moribund", "outline": "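Test tubes (25 ml) were coated by dissolving active ingredient in acetone p.a., diluting to the required concentration, and spreading 250 μl over the inner walls and base on an orbital shaker at 30 rpm for 2 h. Once dry, 5-10 adult Rhipicephalus sanguineus were added, and tubes were capped with perforated lids and kept horizontal in darkness at room temperature. At 48 h, ticks were knocked down and heated at 45-50° C. for up to 5 min. Those unable to climb away were counted dead or moribund, and efficacy ran from 0% to 100%.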", "units": {"efficacy": "%"}, "values": [{"smiles": "Cn1nc(C(F)(F)C(F)(F)F)c(C(F)(F)F)c1-n1cc(-c2cccc(NC(=O)c3ccc(F)cc3)c2)cn1", "note": "[Example 1-003]", "efficacy": 100}, {"smiles": "CCC(=O)Nc1cc(-c2cnn(-c3c(C(F)(F)F)c(C(F)(F)C(F)(F)F)nn3C)c2)ccc1F", "note": "[Example 1-076]", "efficacy": 100}, {"smiles": "CC(C)C(=O)Nc1cc(-c2cnn(-c3c(C(F)(F)F)c(C(F)(F)C(F)(F)F)nn3C)c2)ccc1F", "note": "[Example 1-064]", "efficacy": 100}, {"smiles": "Cc1oncc1C(=O)Nc1cc(-c2cnn(-c3c(C(F)(F)F)c(C(F)(F)C(F)(F)F)nn3C)c2)ccc1F", "note": "[Example 1-081]", "efficacy": 100}]}, {"system": "Boophilus microplus", "assay": "Boophilus microplus injection test", "assay_type": "in vivo", "details": "application rate 20 μg/animal; injection into abdomen; assessed after 7 days", "outline": "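Engorged adult female ticks, five per dose, were injected in the abdomen with 1 μl of active ingredient diluted in dimethyl sulphoxide. Animals were kept in dishes under climate control, and egg fertility was assessed after 7 days.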", "units": {"efficacy (laying of fertile eggs)": "%"}, "values": [{"smiles": "Cn1nc(C(F)(F)C(F)(F)F)c(C(F)(F)F)c1-n1cc(-c2cccc(NC(=O)c3ccc(F)cc3)c2)cn1", "note": "[Example 1-003]", "efficacy (laying of fertile eggs)": 100}, {"smiles": "CCC(=O)Nc1cc(-c2cnn(-c3c(C(F)(F)F)c(C(F)(F)C(F)(F)F)nn3C)c2)ccc1F", "note": "[Example 1-076]", "efficacy (laying of fertile eggs)": 100}, {"smiles": "CC(C)C(=O)Nc1cc(-c2cnn(-c3c(C(F)(F)F)c(C(F)(F)C(F)(F)F)nn3C)c2)ccc1F", "note": "[Example 1-064]", "efficacy (laying of fertile eggs)": 100}, {"smiles": "Cc1oncc1C(=O)Nc1cc(-c2cnn(-c3c(C(F)(F)F)c(C(F)(F)C(F)(F)F)nn3C)c2)ccc1F", "note": "[Example 1-081]", "efficacy (laying of fertile eggs)": 100}]}, {"system": "Ctenocephalides felis", "assay": "Ctenocephalides felis oral test", "assay_type": "in vivo", "details": "application rate 100 ppm in citrated cattle blood; after 2 days", "outline": "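About 20 unfed adult cat fleas fed through a parafilm membrane on citrated cattle blood containing compound, dosed from a DMSO stock. Kill in % scored after 2 days; 100% means all fleas dead.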", "units": {"efficacy (kill in %)": "%"}, "values": [{"smiles": "Cn1nc(C(F)(F)C(F)(F)F)c(C(F)(F)F)c1-n1cc(-c2cccc(NC(=O)c3ccc(F)cc3)c2)cn1", "note": "[Example 1-003]", "efficacy (kill in %)": 100}, {"smiles": "CCC(=O)Nc1cc(-c2cnn(-c3c(C(F)(F)F)c(C(F)(F)C(F)(F)F)nn3C)c2)ccc1F", "note": "[Example 1-076]", "efficacy (kill in %)": 100}, {"smiles": "CC(C)C(=O)Nc1cc(-c2cnn(-c3c(C(F)(F)F)c(C(F)(F)C(F)(F)F)nn3C)c2)ccc1F", "note": "[Example 1-064]", "efficacy (kill in %)": 100}, {"smiles": "Cc1oncc1C(=O)Nc1cc(-c2cnn(-c3c(C(F)(F)F)c(C(F)(F)C(F)(F)F)nn3C)c2)ccc1F", "note": "[Example 1-081]", "efficacy (kill in %)": 100}]}, {"system": "Lucilia cuprina", "assay": "Lucilia cuprina test", "assay_type": "in vivo", "details": "application rate 100 ppm; L1 larvae; after 2 days", "outline": "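About 20 L1 larvae placed in vessels with minced horsemeat treated with compound (DMSO concentrate diluted in water) at the desired concentration. Kill (%) scored after 2 days; 100% means all larvae dead, 0% none.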", "units": {"efficacy (kill in %)": "%"}, "values": [{"smiles": "Cn1nc(C(F)(F)C(F)(F)F)c(C(F)(F)F)c1-n1cc(-c2cccc(NC(=O)c3ccc(F)cc3)c2)cn1", "note": "[Example 1-003]", "efficacy (kill in %)": 100}, {"smiles": "CCC(=O)Nc1cc(-c2cnn(-c3c(C(F)(F)F)c(C(F)(F)C(F)(F)F)nn3C)c2)ccc1F", "note": "[Example 1-076]", "efficacy (kill in %)": 95}, {"smiles": "CC(C)C(=O)Nc1cc(-c2cnn(-c3c(C(F)(F)F)c(C(F)(F)C(F)(F)F)nn3C)c2)ccc1F", "note": "[Example 1-064]", "efficacy (kill in %)": 100}, {"smiles": "Cc1oncc1C(=O)Nc1cc(-c2cnn(-c3c(C(F)(F)F)c(C(F)(F)C(F)(F)F)nn3C)c2)ccc1F", "note": "[Example 1-081]", "efficacy (kill in %)": 100}]}, {"system": "Musca domestica", "assay": "Musca domestica test", "assay_type": "in vivo", "details": "application rate 100 ppm; adult houseflies; after 2 days", "description": "Solvent: dimethyl sulphoxide\nTo produce an appropriate active ingredient formulation, 10 mg of active ingredient are mixed with 0.5 ml of dimethyl sulphoxide, and the concentrate is diluted with water to the desired concentration.\nVessels containing a sponge treated with sugar solution and the active ingredient formulation of the desired concentration are populated with 10 adult houseflies (Musca domestica).\nAfter 2 days, the kill in % is determined. 100% means that all of the flies have been killed; 0% means that none of the flies have been killed.", "units": {"efficacy (kill in %)": "%"}, "values": [{"smiles": "Cn1nc(C(F)(F)C(F)(F)F)c(C(F)(F)F)c1-n1cc(-c2cccc(NC(=O)c3ccc(F)cc3)c2)cn1", "note": "[Example 1-003]", "efficacy (kill in %)": 100}]}, {"system": "Myzus persicae", "assay": "Myzus persicae spray test", "assay_type": "in vivo", "details": "application rate 100 g/ha; after 6 days", "description": "Myzus persicae—Spray Test\nTo produce an appropriate active ingredient formulation, 1 part by weight of active ingredient is dissolved using the specified parts by weight of solvent and made up with water containing an emulsifier concentration of 1000 ppm until the desired concentration is attained. To produce further test concentrations, the preparation is diluted with emulsifier-containing water.\nDiscs of Chinese cabbage leaves (Brassica pekinensis) infested by all stages of the green peach aphid (Myzus persicae) are sprayed with an active ingredient formulation of the desired concentration.\nAfter 6 days, efficacy in % is determined. 100% means that all the aphids have been killed; 0% means that none of the aphids have been killed.", "units": {"efficacy": "%"}, "values": [{"smiles": "Cn1nc(C(F)(F)C(F)(F)F)c(C(F)(F)F)c1-n1cc(-c2cccc(NC(=O)c3ccc(F)cc3)c2)cn1", "note": "[Example 1-003]", "efficacy": 90}, {"smiles": "CCC(=O)Nc1cc(-c2cnn(-c3c(C(F)(F)F)c(C(F)(F)C(F)(F)F)nn3C)c2)ccc1F", "note": "[Example 1-076]", "efficacy": 100}, {"smiles": "CC(C)C(=O)Nc1cc(-c2cnn(-c3c(C(F)(F)F)c(C(F)(F)C(F)(F)F)nn3C)c2)ccc1F", "note": "[Example 1-064]", "efficacy": 100}, {"smiles": "Cc1oncc1C(=O)Nc1cc(-c2cnn(-c3c(C(F)(F)F)c(C(F)(F)C(F)(F)F)nn3C)c2)ccc1F", "note": "[Example 1-081]", "efficacy": 100}]}, {"system": "Phaedon cochleariae", "assay": "Phaedon cochleariae spray test", "assay_type": "in vivo", "details": "application rate 100 g/ha; larvae; after 7 days", "outline": "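Chinese cabbage leaf discs were sprayed with the compound formulated in water containing 1000 ppm emulsifier. After drying, they were infested with mustard beetle larvae. Efficacy was scored as % larvae killed after 7 days (100% = all dead, 0% = none).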", "units": {"efficacy": "%"}, "values": [{"smiles": "Cn1nc(C(F)(F)C(F)(F)F)c(C(F)(F)F)c1-n1cc(-c2cccc(NC(=O)c3ccc(F)cc3)c2)cn1", "note": "[Example 1-003]", "efficacy": 100}, {"smiles": "CCC(=O)Nc1cc(-c2cnn(-c3c(C(F)(F)F)c(C(F)(F)C(F)(F)F)nn3C)c2)ccc1F", "note": "[Example 1-076]", "efficacy": 100}, {"smiles": "CC(C)C(=O)Nc1cc(-c2cnn(-c3c(C(F)(F)F)c(C(F)(F)C(F)(F)F)nn3C)c2)ccc1F", "note": "[Example 1-064]", "efficacy": 100}, {"smiles": "Cc1oncc1C(=O)Nc1cc(-c2cnn(-c3c(C(F)(F)F)c(C(F)(F)C(F)(F)F)nn3C)c2)ccc1F", "note": "[Example 1-081]", "efficacy": 100}]}, {"system": "Spodoptera frugiperda", "assay": "Spodoptera frugiperda spray test", "assay_type": "in vivo", "details": "application rate 100 g/ha; caterpillars; after 7 days", "outline": "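Maize leaf discs were sprayed with compound formulated in solvent plus water containing 1000 ppm emulsifier, dried, then infested with Spodoptera frugiperda caterpillars. Efficacy in % mortality was scored after 7 days (100% all killed, 0% none).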", "units": {"efficacy": "%"}, "values": [{"smiles": "Cn1nc(C(F)(F)C(F)(F)F)c(C(F)(F)F)c1-n1cc(-c2cccc(NC(=O)c3ccc(F)cc3)c2)cn1", "note": "[Example 1-003]", "efficacy": 100}, {"smiles": "CCC(=O)Nc1cc(-c2cnn(-c3c(C(F)(F)F)c(C(F)(F)C(F)(F)F)nn3C)c2)ccc1F", "note": "[Example 1-076]", "efficacy": 100}, {"smiles": "CC(C)C(=O)Nc1cc(-c2cnn(-c3c(C(F)(F)F)c(C(F)(F)C(F)(F)F)nn3C)c2)ccc1F", "note": "[Example 1-064]", "efficacy": 100}, {"smiles": "Cc1oncc1C(=O)Nc1cc(-c2cnn(-c3c(C(F)(F)F)c(C(F)(F)C(F)(F)F)nn3C)c2)ccc1F", "note": "[Example 1-081]", "efficacy": 100}]}, {"system": "Tetranychus urticae", "assay": "Tetranychus urticae spray test, OP-resistant", "assay_type": "in vivo", "details": "application rate 100 g/ha; after 6 days", "outline": "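Bean leaf discs (Phaseolus vulgaris) carrying all stages of OP-resistant mites are sprayed with compound formulated in solvent and emulsifier-containing water. Efficacy (% mites killed) is scored after 6 days.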", "units": {"efficacy": "%"}, "values": [{"smiles": "Cn1nc(C(F)(F)C(F)(F)F)c(C(F)(F)F)c1-n1cc(-c2cccc(NC(=O)c3ccc(F)cc3)c2)cn1", "note": "[Example 1-003]", "efficacy": 100}, {"smiles": "CCC(=O)Nc1cc(-c2cnn(-c3c(C(F)(F)F)c(C(F)(F)C(F)(F)F)nn3C)c2)ccc1F", "note": "[Example 1-076]", "efficacy": 90}, {"smiles": "CC(C)C(=O)Nc1cc(-c2cnn(-c3c(C(F)(F)F)c(C(F)(F)C(F)(F)F)nn3C)c2)ccc1F", "note": "[Example 1-064]", "efficacy": 100}, {"smiles": "Cc1oncc1C(=O)Nc1cc(-c2cnn(-c3c(C(F)(F)F)c(C(F)(F)C(F)(F)F)nn3C)c2)ccc1F", "note": "[Example 1-081]", "efficacy": 100}]}]}
